Data published in patent US8158637B2, “Quinazolines useful as modulators of voltage gated ion channels” (Vertex Pharmaceuticals Incorporated, priority 2005, dated 2012).
pIC50: −log10 of the molar value. Each block holds one molecule with its values, some of them ahead of it.

Biological target: T1, NaV 1.8 channel (Homo sapiens, UniProt Q9Y5Y9)
T1 construct: expressed in transfected cells; host or cells: HEK293
Assay: VIPR optical membrane potential assay with electrical stimulation, NaV1.8 inhibition
Format: cell-based
Conditions: activity against NaV 1.8 channel
Method: Compounds of the invention are useful as antagonists of voltage-gated sodium ion channels. Antagonist properties of test compounds were assessed as follows. Cells expressing the NaV of interest were placed into microtiter plates. After an incubation period, the cells were stained with fluorescent dyes sensitive to the transmembrane potential. The test compounds were added to the microtiter plate. The cells were stimulated with either a chemical or electrical means to evoke a NaV dependent membrane potential change from unblocked channels, which was detected and measured with trans-membrane potential-sensitive dyes. Antagonists were detected as a decreased membrane potential response to the stimulus. The optical membrane potential assay utilized voltage-sensitive FRET sensors described by Gonzalez and Tsien (See, Gonzalez, J. E. and R. Y. Tsien (1995) “Voltage sensing by fluorescence resonance energy transfer in single cells” Biophys J 69(4): 1272-80, and Gonzalez, J. E. and R. Y. Tsien (1997) “Improved indicators of cell membrane potential that use fluorescence resonance energy transfer” Chem Biol 4(4): 269-77) in combination with instrumentation for measuring fluorescence changes such as the Voltage/Ion Probe Reader (VIPR®) (See, Gonzalez, J. E., K. Oades, et al. (1999) “Cell-based assays and instrumentation for screening ion-channel targets” Drug Discov Today 4(9): 431-439).
C) VIPR® Optical Membrane Potential Assay Method with Electrical Stimulation
The following was an example of how NaV1.8 inhibition activity was measured using the optical membrane potential method #2. Other subtypes were performed in an analogous mode in a cell line expressing the NaV of interest.
HEK293 cells stably expressing NaV1.8 were plated into 96-well microtiter plates. After an appropriate incubation period, the cells were stained with the voltage sensitive dyes CC2-DMPE/DiSBAC6(3) as follows.
2×CC2-DMPE/DiSBAC6(3)=8 μM CC2-DMPE/8 μM DiSBAC6(3): 10 mM CC2-DMPE and DiSBAC6(3) was vortexed with an equivalent volume of 10% pluronic, followed by vortexing in required amount of Bath Solution #1. Each cell plate required 5 mL of 2×CC2-DMPE/DiSBAC6(3). 50 μL of 2×CC2-DMPE/DiSBAC6(3) was added to wells containing washed cells, resulting in a 4 μM final staining concentration of both dyes. The cells were stained for 30 minutes in the dark at RT.
2×ABSC1=1 mM ABSC1: The required amount of 200 mM ABSC1 was added to a 50 ml conical tube and mixed with 1 μL 10% pluronic for each mL of solution made and vortexed together. Then Bath Solution #1 was added to make up a 2× solution. Finally, the ABSC1 was added.
The 2×ABSC1 solution was used to solvate compound plates. Note that compound plates were made at 2× drug concentration. The stained plate was washed again, leaving residual volume of 50 μL. Added 50 μL/well of the 2×ABSC1. The cells were stained for 30 minutes in the dark at RT.
The electrical stimulation instrument and methods of use are described in ION Channel Assay Methods PCT/US01/21652 and Nat Biotech 2006, 24(4), 439-446, both herein incorporated by reference. The instrument comprises a microtiter plate handler, an optical system for exciting the coumarin dye while simultaneously recording the coumarin and oxonol emissions, a waveform generator, a current- or voltage-controlled amplifier, and a device for inserting electrodes in well. Under integrated computer control, this instrument passed user-programmed electrical stimulus protocols to cells within the wells of the microtiter plate.
Assay Protocol • 1. Inserted or used electrodes into each well that was assayed. • 2. Used the current-controlled amplifier to deliver stimulation wave pulses for 3 s. Two seconds of pre-stimulus recording was performed to obtain the un-stimulated intensities. Five seconds of post-stimulation recording was performed to examine the relaxation to the resting state. […]

T1 sequence (Q9Y5Y9 whole entry): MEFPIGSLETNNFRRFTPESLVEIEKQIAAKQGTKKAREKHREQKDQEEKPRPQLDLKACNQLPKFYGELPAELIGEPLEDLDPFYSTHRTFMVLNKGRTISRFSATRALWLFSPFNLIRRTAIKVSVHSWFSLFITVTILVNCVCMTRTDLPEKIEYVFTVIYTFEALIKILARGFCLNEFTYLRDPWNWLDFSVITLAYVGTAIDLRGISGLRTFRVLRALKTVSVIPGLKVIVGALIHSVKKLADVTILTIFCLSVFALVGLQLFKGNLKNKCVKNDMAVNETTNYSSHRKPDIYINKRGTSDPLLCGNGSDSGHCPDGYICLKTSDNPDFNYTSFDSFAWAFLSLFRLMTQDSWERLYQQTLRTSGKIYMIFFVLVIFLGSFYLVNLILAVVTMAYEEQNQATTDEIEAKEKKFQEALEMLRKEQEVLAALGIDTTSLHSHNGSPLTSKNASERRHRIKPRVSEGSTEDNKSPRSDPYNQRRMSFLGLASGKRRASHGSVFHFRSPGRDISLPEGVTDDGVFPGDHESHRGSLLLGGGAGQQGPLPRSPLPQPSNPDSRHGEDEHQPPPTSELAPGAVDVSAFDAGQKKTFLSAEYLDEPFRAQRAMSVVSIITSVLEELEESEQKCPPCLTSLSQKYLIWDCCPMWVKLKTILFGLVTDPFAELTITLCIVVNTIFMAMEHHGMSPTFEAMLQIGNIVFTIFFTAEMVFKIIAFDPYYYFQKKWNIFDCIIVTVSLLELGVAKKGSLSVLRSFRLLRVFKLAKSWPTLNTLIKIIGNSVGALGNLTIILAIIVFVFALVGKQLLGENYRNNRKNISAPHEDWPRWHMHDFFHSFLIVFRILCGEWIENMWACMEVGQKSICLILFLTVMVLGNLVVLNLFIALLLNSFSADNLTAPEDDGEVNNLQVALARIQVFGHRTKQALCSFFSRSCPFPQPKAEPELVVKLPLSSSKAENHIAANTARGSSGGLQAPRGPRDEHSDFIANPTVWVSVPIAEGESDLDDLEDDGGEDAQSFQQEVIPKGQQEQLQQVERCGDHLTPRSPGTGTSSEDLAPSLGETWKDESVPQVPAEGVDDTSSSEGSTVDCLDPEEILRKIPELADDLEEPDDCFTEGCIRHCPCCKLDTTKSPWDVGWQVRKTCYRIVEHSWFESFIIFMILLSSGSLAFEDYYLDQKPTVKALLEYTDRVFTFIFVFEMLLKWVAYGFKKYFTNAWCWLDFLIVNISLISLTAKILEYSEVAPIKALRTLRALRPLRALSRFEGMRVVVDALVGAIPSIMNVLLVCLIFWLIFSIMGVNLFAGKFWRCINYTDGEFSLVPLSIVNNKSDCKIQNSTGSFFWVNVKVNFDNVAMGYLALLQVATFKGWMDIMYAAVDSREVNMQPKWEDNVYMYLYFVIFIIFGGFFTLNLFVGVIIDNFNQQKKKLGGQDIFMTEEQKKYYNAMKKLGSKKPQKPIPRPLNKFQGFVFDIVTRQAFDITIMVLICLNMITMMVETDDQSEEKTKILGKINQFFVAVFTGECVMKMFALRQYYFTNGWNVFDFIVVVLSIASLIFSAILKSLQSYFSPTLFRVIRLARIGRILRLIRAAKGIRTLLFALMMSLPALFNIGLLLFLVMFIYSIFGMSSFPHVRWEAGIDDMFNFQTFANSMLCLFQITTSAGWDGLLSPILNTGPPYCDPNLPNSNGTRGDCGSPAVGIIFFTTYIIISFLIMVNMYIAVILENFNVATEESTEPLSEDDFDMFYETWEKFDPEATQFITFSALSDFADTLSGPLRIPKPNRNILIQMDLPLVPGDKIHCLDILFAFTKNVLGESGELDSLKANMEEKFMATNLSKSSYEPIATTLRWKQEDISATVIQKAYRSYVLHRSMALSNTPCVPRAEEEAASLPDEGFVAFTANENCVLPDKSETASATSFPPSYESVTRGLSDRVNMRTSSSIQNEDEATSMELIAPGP

pIC50: > 6.00
SMILES: CCCOC(=O)N[C@@H]1CCN(c2nc(-c3c(O)cccc3F)nc3cc(C)ccc23)C1 [Compound 13, (R)-Propyl 1-(2-(2-fluoro-6-hydroxyphenyl)-7-methylquinazolin-4-yl)pyrrolidin-3-ylcarbamate]

pIC50: 5.30 to 6.00
SMILES: COCCOC(=O)N[C@@H]1CCN(c2nc(-c3c(O)cccc3F)nc3cc(C)ccc23)C1 [Compound 1, (R)-2-Methoxyethyl 1-(2-(2-fluoro-6-hydroxyphenyl)-7-methylquinazolin-4-yl)pyrrolidin-3-ylcarbamate]

pIC50: > 6.00
SMILES: CCCOC(=O)N[C@@H]1CCN(c2nc(-c3ccccc3O)nc3cc(C)ccc23)C1 [Compound 3, (R)-Propyl 1-(2-(2-hydroxyphenyl)-7-methylquinazolin-4-yl)pyrrolidin-3-ylcarbamate]

pIC50: > 6.00
SMILES: Cc1ccc2c(N3CC[C@@H](NC(=O)OCC(C)C)C3)nc(-c3c(O)cccc3F)nc2c1 [Compound 8, (R)-Isobutyl 1-(2-(2-fluoro-6-hydroxyphenyl)-7-methylquinazolin-4-yl)pyrrolidin-3-ylcarbamate]

pIC50: > 6.00
SMILES: Cc1ccc2c(N3CC[C@@H](NC(=O)OCC(C)(C)C)C3)nc(-c3c(O)cccc3F)nc2c1 [Compound 11, (R)-Neopentyl 1-(2-(2-fluoro-6-hydroxyphenyl)-7-methylquinazolin-4-yl)pyrrolidin-3-ylcarbamate]

pIC50: 5.30 to 6.00
SMILES: CCOC(=O)N[C@@H]1CCN(c2nc(-c3c(O)cccc3F)nc3cc(C)ccc23)C1 [Compound 10, (R)-Ethyl 1-(2-(2-fluoro-6-hydroxyphenyl)-7-methylquinazolin-4-yl)pyrrolidin-3-ylcarbamate]

Continued, molecule first:

SMILES: Cc1ccc2c(N3CC[C@@H](NC(=O)OCC(C)C)C3)nc(-c3ccccc3C(F)F)nc2c1 [Compound 17, (R)-Isobutyl 1-(2-(2-(difluoromethyl)phenyl)-7-methylquinazolin-4-yl)pyrrolidin-3-ylcarbamate]
pIC50: > 6.00

SMILES: Cc1ccc2c(N3CC[C@@H](NC(=O)OCC(C)(C)C)C3)nc(-c3ccccc3O)nc2c1 [Compound 9, (R)-Neopentyl 1-(2-(2-hydroxyphenyl)-7-methylquinazolin-4-yl)pyrrolidin-3-ylcarbamate]
pIC50: > 6.00

SMILES: CC(C)OC(=O)N[C@@H]1CCN(c2nc(-c3ccccc3O)nc3ccc(F)cc23)C1 [Compound 16, (R)-Isopropyl 1-(6-fluoro-2-(2-hydroxyphenyl)quinazolin-4-yl)pyrrolidin-3-ylcarbamate]
pIC50: 5.30 to 6.00

SMILES: Cc1ccc2c(N3CC[C@@H](NC(=O)OC(C)C)C3)nc(-c3ccccc3O)nc2c1 [Compound 12, (R)-Isopropyl 1-(2-(2-hydroxyphenyl)-7-methylquinazolin-4-yl)pyrrolidin-3-ylcarbamate]
pIC50: > 6.00

SMILES: CC(C)(C)COC(=O)N[C@@H]1CCN(c2nc(-c3ccccc3O)nc3ccc(F)cc23)C1 [Compound 4, (R)-Neopentyl 1-(6-fluoro-2-(2-hydroxyphenyl)quinazolin-4-yl)pyrrolidin-3-ylcarbamate]
pIC50: < 5.30

SMILES: COCCOC(=O)N[C@@H]1CCN(c2nc(-c3ccccc3O)nc3cc(C)ccc23)C1 [Compound 14, (R)-2-Methoxyethyl 1-(2-(2-hydroxyphenyl)-7-methylquinazolin-4-yl)pyrrolidin-3-ylcarbamate]
pIC50: 5.30 to 6.00

SMILES: CC(C)COC(=O)N[C@@H]1CCN(c2nc(-c3ccccc3O)nc3ccc(F)cc23)C1 [Compound 15, (R)-Isobutyl 1-(6-fluoro-2-(2-hydroxyphenyl)quinazolin-4-yl)pyrrolidin-3-ylcarbamate]
pIC50: 5.30 to 6.00

SMILES: Cc1ccc2c(N3CC[C@@H](NC(=O)OCC(C)(C)C)C3)nc(-c3ccccc3C(F)F)nc2c1 [Compound 18, (R)-Neopentyl 1-(2-(2-(difluoromethyl)phenyl)-7-methylquinazolin-4-yl)pyrrolidin-3-ylcarbamate]
pIC50: > 6.00

SMILES: Cc1ccc2c(N3CC[C@@H](NC(=O)OCC(C)C)C3)nc(-c3ccccc3O)nc2c1 [Compound 5, (R)-Isobutyl 1-(2-(2-hydroxyphenyl)-7-methylquinazolin-4-yl)pyrrolidin-3-ylcarbamate]
pIC50: > 6.00

SMILES: COCCOC(=O)N[C@H]1CCN(c2nc(-c3ccccc3O)nc3cc(C)ccc23)C1 [Compound 6, (S)-{1-[2-(2-Hydroxy-phenyl)-7-methyl-quinazolin-4-yl]-pyrrolidin-3-yl}-carbamic acid 2-methoxy-ethyl ester]
pIC50: < 5.30

SMILES: CCOC(=O)N[C@@H]1CCN(c2nc(-c3ccccc3O)nc3cc(C)ccc23)C1 [Compound 2, (R)-Ethyl 1-(2-(2-hydroxyphenyl)-7-methylquinazolin-4-yl)pyrrolidin-3-ylcarbamate]
pIC50: > 6.00

SMILES: Cc1ccc2c(N3CC[C@H](NC(=O)OCC(C)C)C3)nc(-c3ccccc3O)nc2c1 [Compound 7, (S)-{1-[2-(2-Hydroxy-phenyl)-7-methyl-quinazolin-4-yl]-pyrrolidin-3-yl}-carbamic acid isobutyl ester]
pIC50: 5.30 to 6.00
